Experimental data reported in PubChem BioAssay AID256 (DTP/NCI, 2004).
Where “and” joins values, the source holds several entries; their conditions need not be identical. Equal values may be shown once. Inconclusive results and toxic doses are left out.

Tested on: CD2F1 mice, L1210 leukemia ip, survival T/C
Test: NCI In Vivo Anticancer Drug Screen. Data for tumor model L1210 Leukemia (intraperitoneal) in CD2F1 (CDF1) mice
Conditions: higher = longer survival
How it was run: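 Implant tumor; dose compound or vehicle; measure endpoint in both groups; report treated divided by control.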

[1] = endpoint: mean survival time, dose: 100.0 mg/kg/injection, schedule: Q01DX001 (ip), vehicle: saline with Tween-80
[2] = endpoint: mean survival time, dose: 200.0 mg/kg/injection, schedule: Q01DX001 (ip), vehicle: saline with Tween-80
[3] = endpoint: mean survival time, dose: 25.0 mg/kg/injection, schedule: Q01DX009 (ip), vehicle: saline
[4] = endpoint: mean survival time, dose: 50.0 mg/kg/injection, schedule: Q01DX009 (ip), vehicle: saline

`CN(C)c1ccc(-c2cc(C(=O)O)c3cc(I)ccc3n2)c(Cl)c1` was tested, and the T/C (endpoint: mean survival time, dose: 75.0 mg/kg/injection, schedule: Q01DX009 (ip), vehicle: saline) was 100 % of control, the T/C (endpoint: mean survival time, dose: 75.0 mg/kg/injection, schedule: Q04DX003 (ip), vehicle: saline) was 92 % of control and the T/C (endpoint: mean survival time, dose: 150.0 mg/kg/injection, schedule: Q01DX009 (ip), vehicle: saline) was 94 % of control. The T/C (endpoint: mean survival time, dose: 150.0 mg/kg/injection, schedule: Q04DX003 (ip), vehicle: saline) was 93 % of control, the T/C (endpoint: mean survival time, dose: 300.0 mg/kg/injection, schedule: Q01DX009 (ip), vehicle: saline) was 98 % of control and the T/C (endpoint: mean survival time, dose: 300.0 mg/kg/injection, schedule: Q04DX003 (ip), vehicle: saline) was 110 % of control.
For `CCOC(=O)c1cc(=O)c2ccccc2[nH]1`, the T/C (endpoint: mean survival time, dose: 50.0 mg/kg/injection, schedule: Q01DX001 (ip), vehicle: saline with Tween-80) was 93 % of control, the T/C [1] was 98 % of control and the T/C [2] was 90 % of control.
With `CSc1nc(NC2OC(CO)C(O)C(O)C2O)c(Br)c(=O)n1C` (stereo not given) the T/C (endpoint: median survival time, dose: 12.5 mg/kg/injection, schedule: Q01DX005 (ip), vehicle: saline with Tween-80) was 98 % of control, the T/C (endpoint: median survival time, dose: 25.0 mg/kg/injection, schedule: Q01DX005 (ip), vehicle: saline with Tween-80) was 100 % of control and the T/C (endpoint: median survival time, dose: 50.0 mg/kg/injection, schedule: Q01DX005 (ip), vehicle: saline with Tween-80) was 96 % of control. The T/C (endpoint: median survival time, dose: 100.0 mg/kg/injection, schedule: Q01DX005 (ip), vehicle: saline with Tween-80) was 101 % of control.
`CCOc1nc(N)nc2c1ncn2C1CC(O)C(CO)O1` (stereo not given) was tested, and the T/C (endpoint: mean survival time, dose: 12.5 mg/kg/injection, schedule: Q01DX005 (ip), vehicle: water) was 95 % of control, the T/C (endpoint: mean survival time, dose: 25.0 mg/kg/injection, schedule: Q01DX005 (ip), vehicle: water) was 98 % of control and the T/C (endpoint: mean survival time, dose: 50.0 mg/kg/injection, schedule: Q01DX005 (ip), vehicle: water) was 102 % of control. For the same compound, the T/C (endpoint: mean survival time, dose: 100.0 mg/kg/injection, schedule: Q01DX005 (ip), vehicle: water) was 109 % of control and the T/C (endpoint: mean survival time, dose: 200.0 mg/kg/injection, schedule: Q01DX005 (ip), vehicle: water) was 98 % of control.
In the case of `CCOC(=O)/C(C#N)=C1/C=CCCC1`, the T/C (endpoint: mean survival time, dose: 75.0 mg/kg/injection, schedule: Q01DX001 (ip), vehicle: saline) is reported as 97 % of control, the T/C (endpoint: mean survival time, dose: 150.0 mg/kg/injection, schedule: Q01DX001 (ip), vehicle: saline) is reported as 104 % of control and the T/C (endpoint: mean survival time, dose: 300.0 mg/kg/injection, schedule: Q01DX001 (ip), vehicle: saline) is reported as 97 % of control.
In the case of `NC(N)=NCCCC(N=Cc1ccccc1)C(=O)O` (stereo not given), the T/C (endpoint: mean survival time, dose: 100.0 mg/kg/injection, schedule: Q01DX001 (ip), vehicle: saline) is reported as 102 % of control, the T/C (endpoint: mean survival time, dose: 200.0 mg/kg/injection, schedule: Q01DX001 (ip), vehicle: saline) is reported as 102 % of control and the T/C (endpoint: mean survival time, dose: 400.0 mg/kg/injection, schedule: Q01DX001 (ip), vehicle: saline) is reported as 90 % of control.
`Cc1[nH]c2ccc(-c3ccccc3)cc2c1CC(=O)OC(C)C` was tested, and the T/C (endpoint: mean survival time, dose: 100.0 mg/kg/injection, schedule: Q04DX002 (ip), vehicle: saline with Tween-80) was 97 % of control, the T/C (endpoint: mean survival time, dose: 200.0 mg/kg/injection, schedule: Q04DX002 (ip), vehicle: saline with Tween-80) was 117 % of control and the T/C (endpoint: mean survival time, dose: 400.0 mg/kg/injection, schedule: Q04DX002 (ip), vehicle: saline with Tween-80) was 105 % of control.
For `NCc1cn(C2OC(CO)C(O)C2O)c2ncnc(N)c12` (stereo not given), the T/C (endpoint: mean survival time, dose: 3.13 mg/kg/injection, schedule: Q01DX005 (ip), vehicle: water) was 118 % of control and the T/C (endpoint: mean survival time, dose: 6.25 mg/kg/injection, schedule: Q01DX005 (ip), vehicle: water) was 95 % of control.
With `CC1C(=O)OC(C)(C)C1(C)C` (stereo not given) the T/C (endpoint: mean survival time, dose: 25.0 mg/kg/injection, schedule: Q01DX009 (ip), vehicle: saline with Tween-80) was 98 % of control, the T/C (endpoint: mean survival time, dose: 50.0 mg/kg/injection, schedule: Q01DX009 (ip), vehicle: saline with Tween-80) was 98 % of control and the T/C (endpoint: mean survival time, dose: 100.0 mg/kg/injection, schedule: Q04DX003 (ip), vehicle: saline with Tween-80) was 104 % of control.
`Nc1cc(=O)c2cn[nH]c2[nH]1` was tested, and the T/C (endpoint: mean survival time, dose: 12.5 mg/kg/injection, schedule: Q01DX005 (ip), vehicle: other) was 98 % of control, the T/C (endpoint: mean survival time, dose: 25.0 mg/kg/injection, schedule: Q01DX005 (ip), vehicle: other) was 102 % of control and the T/C (endpoint: mean survival time, dose: 50.0 mg/kg/injection, schedule: Q01DX005 (ip), vehicle: other) was 102 % of control. The T/C (endpoint: mean survival time, dose: 100.0 mg/kg/injection, schedule: Q01DX005 (ip), vehicle: other) was 95 % of control.
`N#CSCN1C(=O)C=CC1=O` was tested, and the T/C (endpoint: mean survival time, dose: 1.25 mg/kg/injection, schedule: Q01DX009 (ip), vehicle: saline with Tween-80) was 93 % of control, the T/C (endpoint: mean survival time, dose: 2.5 mg/kg/injection, schedule: Q01DX009 (ip), vehicle: saline with Tween-80) was 89 % of control and the T/C (endpoint: mean survival time, dose: 5.0 mg/kg/injection, schedule: Q01DX009 (ip), vehicle: saline with Tween-80) was 93 % of control.
`CC1(C)N=C(N)N=C(N)N1c1ccc(OCC(=O)N2CCOCC2)c(Cl)c1` was tested, and the T/C (endpoint: mean survival time, dose: 6.25 mg/kg/injection, schedule: Q01DX009 (ip), vehicle: saline) was 98 % of control, the T/C (endpoint: mean survival time, dose: 12.5 mg/kg/injection, schedule: Q01DX009 (ip), vehicle: saline) was 97 % of control and the T/C [3] was 92 % of control. The T/C [4] was 98 % of control and the T/C (endpoint: mean survival time, dose: 100.0 mg/kg/injection, schedule: Q01DX009 (ip), vehicle: saline) was 98 % of control.
For `Cc1cc(C)c(N2C(=O)C=CC2=O)c(C)c1`, the T/C (endpoint: mean survival time, dose: 6.25 mg/kg/injection, schedule: Q01DX009 (ip), vehicle: saline with Tween-80) was 94 % of control.
With `N=c1c2ccccc2nnn1Cc1ccccc1` the T/C [1] was 98 % of control, the T/C [2] was 96 % of control and the T/C (endpoint: mean survival time, dose: 400.0 mg/kg/injection, schedule: Q01DX001 (ip), vehicle: saline with Tween-80) was 93 % of control.
`CCN(CC)CC(=O)O[C@]1(CC)C(=O)OCc2c1cc1n(c2=O)Cc2cc3ccccc3nc2-1` was tested, and the T/C (endpoint: median survival time, dose: 1.0 mg/kg/injection, schedule: Q01DX009 (ip), vehicle: water) was 124 % of control and 109 % of control, the T/C (endpoint: median survival time, dose: 3.75 mg/kg/injection, schedule: Q04DX002 (ip), vehicle: water) was 114 % of control and 109 % of control and the T/C (endpoint: median survival time, dose: 3.75 mg/kg/injection, schedule: Q04HX004 (iv), vehicle: other) was 150 % of control. For the same compound, the T/C (endpoint: median survival time, dose: 4.0 mg/kg/injection, schedule: Q01DX009 (ip), vehicle: water) was 154 % of control and 163 % of control, the T/C (endpoint: median survival time, dose: 7.5 mg/kg/injection, schedule: Q04DX002 (ip), vehicle: water) was 124 % of control and the T/C (endpoint: median survival time, dose: 7.5 mg/kg/injection, schedule: Q04HX004 (iv), vehicle: dextrose) was 183 % of control. The T/C (endpoint: median survival time, dose: 7.5 mg/kg/injection, schedule: Q04HX004 (iv), vehicle: other) was 175 % of control, the T/C (endpoint: median survival time, dose: 8.0 mg/kg/injection, schedule: Q01DX009 (ip), vehicle: water) was 113 % of control and the T/C (endpoint: median survival time, dose: 15.0 mg/kg/injection, schedule: Q04DX002 (ip), vehicle: water) was 157 % of control. For the same compound, the T/C (endpoint: median survival time, dose: 15.0 mg/kg/injection, schedule: Q04HX004 (iv), vehicle: dextrose) was 218 % of control, the T/C (endpoint: median survival time, dose: 15.0 mg/kg/injection, schedule: Q04HX004 (iv), vehicle: other) was 203 % of control and the T/C (endpoint: median survival time, dose: 30.0 mg/kg/injection, schedule: Q04DX002 (ip), vehicle: water) was 223 % of control and 256 % of control. The T/C (endpoint: median survival time, dose: 30.0 mg/kg/injection, schedule: Q04HX004 (iv), vehicle: dextrose) was 204 % of control and the T/C (endpoint: median survival time, dose: 30.0 mg/kg/injection, schedule: Q04HX004 (iv), vehicle: other) was 268 % of control.
In the case of `O=C1C2C(C(=O)N1c1ccc([N+](=O)[O-])cc1)C1c3ccccc3C2C2CCCCN21` (stereo not given), the T/C (endpoint: mean survival time, dose: 100.0 mg/kg/injection, schedule: Q01DX001 (ip), vehicle: Klucel (hydroxypropylcellulose) (HPC)) is reported as 93 % of control, the T/C (endpoint: mean survival time, dose: 200.0 mg/kg/injection, schedule: Q01DX001 (ip), vehicle: Klucel (hydroxypropylcellulose) (HPC)) is reported as 101 % of control and the T/C (endpoint: mean survival time, dose: 400.0 mg/kg/injection, schedule: Q01DX001 (ip), vehicle: Klucel (hydroxypropylcellulose) (HPC)) is reported as 100 % of control.
With `Cc1nc(N=C(N)N)nc2ccc(Cl)cc12` the T/C (endpoint: mean survival time, dose: 18.8 mg/kg/injection, schedule: Q01DX009 (ip), vehicle: saline) was 97 % of control.
For `CCCCOC(=O)c1cc([N+](=O)[O-])cc([N+](=O)[O-])c1Sc1ncnc2nc[nH]c12`, the T/C (endpoint: mean survival time, dose: 0.63 mg/kg/injection, schedule: Q01DX005 (ip), vehicle: other) was 108 % of control, the T/C (endpoint: mean survival time, dose: 1.25 mg/kg/injection, schedule: Q01DX005 (ip), vehicle: other) was 95 % of control and the T/C (endpoint: mean survival time, dose: 2.5 mg/kg/injection, schedule: Q01DX005 (ip), vehicle: other) was 110 % of control. For the same compound, the T/C (endpoint: mean survival time, dose: 5.0 mg/kg/injection, schedule: Q01DX005 (ip), vehicle: other) was 113 % of control, the T/C (endpoint: mean survival time, dose: 9.4 mg/kg/injection, schedule: Q01DX005 (ip), vehicle: other) was 98 % of control and the T/C (endpoint: mean survival time, dose: 10.0 mg/kg/injection, schedule: Q01DX005 (ip), vehicle: other) was 115 % of control. For the same compound, the T/C (endpoint: mean survival time, dose: 18.8 mg/kg/injection, schedule: Q01DX005 (ip), vehicle: other) was 103 % of control, the T/C (endpoint: mean survival time, dose: 37.5 mg/kg/injection, schedule: Q01DX005 (ip), vehicle: other) was 109 % of control and the T/C (endpoint: mean survival time, dose: 75.0 mg/kg/injection, schedule: Q01DX005 (ip), vehicle: other) was 113 % of control.
For `C=CC(N)=O`, the T/C [3] was 102 % of control, the T/C (endpoint: mean survival time, dose: 25.0 mg/kg/injection, schedule: Q04DX003 (ip), vehicle: saline) was 92 % of control and the T/C [4] was 92 % of control. The T/C (endpoint: mean survival time, dose: 50.0 mg/kg/injection, schedule: Q04DX003 (ip), vehicle: saline) was 105 % of control and the T/C (endpoint: mean survival time, dose: 100.0 mg/kg/injection, schedule: Q04DX003 (ip), vehicle: saline) was 97 % of control.
